According to US20230322815A1, “NOVEL COMPOUNDS AND THERAPEUTIC USES THEREOF” (University of Huddersfield, priority 2020, published 2023):

Columns and labels:
[1] = biological target: Src (Homo sapiens, UniProt P12931); test: Cell-free kinase screen; assay type: biochemical; details: 10 μM complex
Description: FIG. 9. Effects of [L2Zn3]^6+ and [L2Cu3]^6+ on the activity of purified human kinases. a,b, Percentage inhibition of the indicated kinases by [L2Zn3]^6+ (a) and [L2Cu3]^6+ (b) respectively at a concentration of 10 μM; full results are presented in the ESI. c,d, Kinases whose activity is stimulated by [L2Zn3]^6+ (c) or [L2Cu3]^6+ (d) complexes. e,f, Kinome map showing kinases inhibited (red) or stimulated (green) by [L2Zn3]^6+ (e) or [L2Cu3]^6+ (f). III ustration reproduced courtesy of Cell Signalling Technology Inc (www.cellsignal.com)
FIG. 16. The effect of [L2Zn3]^6+ and [L2Cu3]^6+ on the activity of recombinant human kinases. The compounds were submitted to the MRC Protein Phosphorylation and Ubiquitination Unit International Centre for Kinase Profiling (University of Dundee) and tested at a concentration of 10 μM against 140 human kinases (Premier Screen).
Given the ability of the Zn^2+ complex to dephosphorylate amino acids serine, tyrosine and threonine (FIG. 6) and the Cu^2+ complex to bind phenyl phosphate (FIG. 3), it was examined whether the complexes affect the activity of kinases. This was assessed in a cell-free screen of 140 kinases using purified recombinant human kinases and substrate peptides incubated in the presence of ^33P ATP and 10 μM complex or solvent control. […]

[2] = biological target: recombinant Src (p-Y527, p-Y416) (Homo sapiens, UniProt P12931); test: Western blot of purified recombinant kinase after exposure to complex; assay type: biochemical; details: 50 μM complex, 4 hours, in the presence of ATP
Description: FIG. 10. Western blot analysis of purified recombinant Src and AMPK following exposure to [L2Zn3]^6+ and [L2Cu3]^6+. Purified enzymes were incubated with complexes (50 μM) for 4 hours in the presence of ATP prior to analysis.
Protein lysates and recombinant proteins were resolved on 15% SDS polyacrylamide gels. Proteins were electroblotted onto nitrocellulose membrane by wet transfer in 1×Tris Glycine buffer (Biorad) at 35 mA overnight at room temperature (Allison et al., 2014). After blocking of membranes, these were incubated with primary antibody overnight at 4° C. before addition of rabbit or mouse secondary antibody (HRP-conjugated) for 1 h at room temperature and development of blots by enhanced chemiluminescence. Primary antibodies were: anti-Src (total) (Cell Signalling Technology #2123 1:1000), anti-phosphorylated Src (Y527) (Cell Signalling Technology #21055 1:1000), anti-phosphorylated Src (Y416) (Cell Signalling Technology #69435 1:1000), anti-AMPKα (total) (Cell Signalling Technology #2532 1:1000), anti-phosphorylated AMPKα (T172) (Cell Signalling Technology […] 1:1000), anti-phospho-Tyr (pan) (Cell Signalling Technology #8954 1:2000), anti-p53 (Santa Cruz, DO-1 clone, 1:1000), anti-β-actin (Merck MAB1501, 1:40,000). Quantification of signals was performed by densitometry using Image J software.
For Src, effects of the complexes on two key regulatory phospho-amino acids were examined, Y527 and Y416 (FIG. 10). […] The decrease in p-Y527 is consistent with the selective phosphatase activity of [L2Zn3]^6+.

[3] = test system: chick embryo; test: Embryonic toxicity, HCT116 in ovo study; assay type: in vivo, chick (White Leghorn); details: for embryo tolerability: all doses tested, no statistically significant difference to solvent control; for % Alive / % Dead / Alive (embryos at E18) / Dead (embryos at E18): HCT116 study
Description: 10^6 tumor cells (H460, HT29 or HCT116) were grafted onto the upper chorioallantoic membrane (CAM) of the developing chick embryo on embryonic day 9 (E9). Access to the upper CAM was through a small hole drilled through the eggshell of fertilized White Leghorn eggs (into the air sac) on E9 (15 eggs per experimental group).
100 μl of freshly prepared experimental compound, vehicle control or standard-of-care (SoC) drug at their working concentrations were pipetted onto the tumor graft at E11, E13, E15 and E17. On day E18, the upper CAM (with tumor) was removed, washed by PBS buffer and then directly transferred in PFA (fixation for 48 hrs). After that, tumors were carefully cut away from normal CAM tissue and weighed.
Embryonic viability was checked daily. The number of dead embryos was also counted on E18, to evaluate treatment-induced embryo toxicity.

[4] = dose [1]: L2Zn3 70.5 μM, L2Cu3 75 μM
[5] = dose [2]: L2Zn3 141 μM, L2Cu3 150 μM
[6] = dose [3]: L2Zn3 282 μM, L2Cu3 300 μM

Sequence of recombinant Src (p-Y527, p-Y416) (P12931 whole entry): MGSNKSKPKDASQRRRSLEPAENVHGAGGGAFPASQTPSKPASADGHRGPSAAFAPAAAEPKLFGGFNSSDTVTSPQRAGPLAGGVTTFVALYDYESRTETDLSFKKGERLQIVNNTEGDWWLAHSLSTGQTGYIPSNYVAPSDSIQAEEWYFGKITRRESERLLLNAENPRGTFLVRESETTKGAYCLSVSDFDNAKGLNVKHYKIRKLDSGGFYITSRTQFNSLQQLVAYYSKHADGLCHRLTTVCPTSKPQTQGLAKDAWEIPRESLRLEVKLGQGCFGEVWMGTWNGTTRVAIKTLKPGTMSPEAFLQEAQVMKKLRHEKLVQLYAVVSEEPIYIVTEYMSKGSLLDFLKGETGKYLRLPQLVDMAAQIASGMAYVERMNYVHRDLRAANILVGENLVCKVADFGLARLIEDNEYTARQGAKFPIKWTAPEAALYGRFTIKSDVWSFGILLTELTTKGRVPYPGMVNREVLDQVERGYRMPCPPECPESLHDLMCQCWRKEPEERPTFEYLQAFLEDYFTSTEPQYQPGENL
Sequence of Src (P12931 whole entry): as above

Question: What does the source list for `[Zn+2].[Zn+2].[Zn+2].c1ccc(-c2csc(NCCN(CCNc3nc(-c4ccccn4)cs3)CCNc3nc(-c4ccccn4)cs3)n2)nc1.c1ccc(-c2csc(NCCN(CCNc3nc(-c4ccccn4)cs3)CCNc3nc(-c4ccccn4)cs3)n2)nc1` [[L2Zn3]^6+]?
Answer: effect on Src kinase activity in the kinase screen [1]: activity was increased; decrease in p-Y527 relative to total Src levels [2]: ~30%; increase in p-Y416 levels [2]: ~5 fold; embryo tolerability [3]: well tolerated; % Alive [3, 4]: 100%; % Dead [3, 4]: 0%; Alive (embryos at E18) [3, 4]: 15; Dead (embryos at E18) [3, 4]: 0; % Alive [3, 5]: 86.67%; % Dead [3, 5]: 13.33%; Alive (embryos at E18) [3, 5]: 13; Dead (embryos at E18) [3, 5]: 2; % Alive [3, 6]: 80.00%; % Dead [3, 6]: 20.00%; Alive (embryos at E18) [3, 6]: 12; Dead (embryos at E18) [3, 6]: 3

Question: `[Cu+2].[Cu+2].[Cu+2].c1ccc(-c2csc(NCCN(CCNc3nc(-c4ccccn4)cs3)CCNc3nc(-c4ccccn4)cs3)n2)nc1.c1ccc(-c2csc(NCCN(CCNc3nc(-c4ccccn4)cs3)CCNc3nc(-c4ccccn4)cs3)n2)nc1` [[L2Cu3]^6+] was tested. Which “effect on Src kinase activity in the kinase screen” value [1] did it give?
Answer: activity was increased

Question: And the “detection of p-Y416” value [2]?
Answer: could not be detected

Question: What about the embryo tolerability [3] of the same compound?
Answer: well tolerated

Question: What about the “% Alive” value [3, 4] of the same compound?
Answer: 100%

Question: What about the “% Dead” value [3, 4] of the same compound?
Answer: 0%

Question: What about the “Alive (embryos at E18)” value [3, 4] of the same compound?
Answer: 14

Question: What about the “Dead (embryos at E18)” value [3, 4] of the same compound?
Answer: 0

Question: What about the “% Alive” value [3, 5] of the same compound?
Answer: 86.67%

Question: And the “% Dead” value [3, 5]?
Answer: 13.33%

Question: And the “Alive (embryos at E18)” value [3, 5]?
Answer: 13

Question: And the “Dead (embryos at E18)” value [3, 5]?
Answer: 2

Question: What about the “% Alive” value [3, 6] of the same compound?
Answer: 86.67%

Question: What about the “% Dead” value [3, 6] of the same compound?
Answer: 13.33%

Question: And the “Alive (embryos at E18)” value [3, 6]?
Answer: 13

Question: And the “Dead (embryos at E18)” value [3, 6]?
Answer: 2
